Measured values: the NIST ThermoML archive (doi:10.1021/je200830j)
± gives the expanded uncertainty stated by the source.

Key:
[1] = xn = mol fraction of the nth substance listed; settings: 101 kPa, Liquid, Capillary tube (Ostwald / Ubbelohde) method
[2] = 101.33 kPa, Liquid; for mass density: Vibrating tube method; for viscosity: Vibrating wire viscometry

CCCCCCCCCCCCCC[P+](CCCCCC)(CCCCCC)CCCCCC.N#C[N-]C#N [tetradecyl(trihexyl)phosphonium dicyanamide] + O
viscosity ([1]; 298.17 K, x2 = 0.275): 372.8 ± 19 mPa·s
viscosity ([1]; 298.17 K, x2 = 0.4): 362.7 ± 21 mPa·s
viscosity ([1]; 303.11 K, x2 = 0.198): 284.53 ± 14 mPa·s
viscosity ([1]; 303.13 K, x2 = 0.275): 282.44 ± 14 mPa·s
viscosity ([1]; 308.09 K, x2 = 0.275): 217.15 ± 10 mPa·s
viscosity ([1]; 317.92 K, x2 = 0.198): 135.23 ± 6 mPa·s

CCCCCCCCCCCCCC[P+](CCCCCC)(CCCCCC)CCCCCC.N#C[N-]C#N [tetradecyl(trihexyl)phosphonium dicyanamide]
mass density ([2]; 290.66 K): 902.3 ± 1.9 kg/m3
viscosity ([2]; 293.14 K): 505.9 ± 28 mPa·s
mass density ([2]; 293.15 K): 900.9 ± 1.9 kg/m3
mass density ([2]; 293.16 K): 900.9 ± 1.9 kg/m3
mass density ([2]; 295.65 K): 899.5 ± 1.9 kg/m3
mass density ([2]; 295.66 K): 899.5 ± 1.9 kg/m3
mass density ([2]; 298.15 K): 898 ± 1.9 kg/m3
mass density ([2]; 298.16 K): 898 ± 1.9 kg/m3
viscosity ([2]; 298.2 K): 378 ± 20 mPa·s
mass density ([2]; 300.65 K): 896.6 ± 1.9 kg/m3
mass density ([2]; 300.66 K): 896.6 ± 1.9 kg/m3
mass density ([2]; 303.15 K): 895.1 ± 1.9 kg/m3
mass density ([2]; 303.16 K): 895.1 ± 1.9 kg/m3
viscosity ([2]; 303.18 K): 288 ± 14 mPa·s
mass density ([2]; 305.65 K): 893.7 ± 1.9 kg/m3
mass density ([2]; 308.15 K): 892.3 ± 1.9 kg/m3
mass density ([2]; 308.16 K): 892.3 ± 1.9 kg/m3
viscosity ([2]; 308.2 K): 219.9 ± 10 mPa·s
mass density ([2]; 310.65 K): 890.9 ± 1.9 kg/m3
mass density ([2]; 310.66 K): 890.9 ± 1.9 kg/m3
mass density ([2]; 313.15 K): 889.5 ± 1.9 kg/m3
mass density ([2]; 313.16 K): 889.5 ± 1.9 kg/m3
viscosity ([2]; 313.18 K): 171.1 ± 7.8 mPa·s
mass density ([2]; 315.65 K): 888.1 ± 1.9 kg/m3
mass density ([2]; 318.15 K): 886.7 ± 1.9 kg/m3
viscosity ([2]; 318.19 K): 134.4 ± 6 mPa·s
mass density ([2]; 320.65 K): 885.3 ± 1.9 kg/m3
